Assays:
Test in all cases: TLR7/8/9 Inhibition Reporter Assays
Toll-like receptor 9 = target: T1, Toll-like receptor 9 (Homo sapiens, UniProt Q9NR96)
T1 sequence (Q9NR96 whole entry): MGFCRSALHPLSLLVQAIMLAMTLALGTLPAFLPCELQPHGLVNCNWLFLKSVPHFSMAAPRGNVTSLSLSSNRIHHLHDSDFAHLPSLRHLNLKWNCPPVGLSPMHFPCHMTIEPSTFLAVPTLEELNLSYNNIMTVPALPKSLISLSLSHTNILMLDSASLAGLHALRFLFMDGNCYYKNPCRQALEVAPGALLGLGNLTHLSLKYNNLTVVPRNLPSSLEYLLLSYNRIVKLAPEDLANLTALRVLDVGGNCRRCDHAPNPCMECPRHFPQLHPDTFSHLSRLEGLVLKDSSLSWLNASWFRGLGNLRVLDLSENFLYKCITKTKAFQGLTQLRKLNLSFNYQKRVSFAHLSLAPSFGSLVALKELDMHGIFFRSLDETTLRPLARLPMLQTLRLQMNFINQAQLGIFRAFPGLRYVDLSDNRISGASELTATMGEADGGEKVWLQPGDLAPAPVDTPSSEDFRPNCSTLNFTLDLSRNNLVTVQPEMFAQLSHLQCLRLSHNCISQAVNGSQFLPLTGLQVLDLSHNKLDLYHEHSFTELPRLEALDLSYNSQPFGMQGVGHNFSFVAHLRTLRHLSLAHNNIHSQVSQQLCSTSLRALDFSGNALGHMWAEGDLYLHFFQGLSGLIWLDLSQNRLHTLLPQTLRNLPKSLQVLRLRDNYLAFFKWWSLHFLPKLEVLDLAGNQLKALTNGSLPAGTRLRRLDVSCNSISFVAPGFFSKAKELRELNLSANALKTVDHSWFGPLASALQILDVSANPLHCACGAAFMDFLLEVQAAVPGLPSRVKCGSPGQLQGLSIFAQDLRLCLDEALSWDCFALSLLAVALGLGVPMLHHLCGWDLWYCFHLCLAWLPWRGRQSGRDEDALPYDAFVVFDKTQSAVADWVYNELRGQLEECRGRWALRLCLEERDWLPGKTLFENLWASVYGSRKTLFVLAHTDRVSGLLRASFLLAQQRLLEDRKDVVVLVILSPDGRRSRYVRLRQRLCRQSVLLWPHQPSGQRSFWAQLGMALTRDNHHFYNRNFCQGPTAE
Protocol: (§1) HEK-Blue-cells (Invivogen) overexpressing human TLR7, TLR8 or TLR9 receptors were used for screening inhibitors of these receptors using an inducible SEAP (secreted embryonic alkaline phosphatase) reporter gene under the control of the IFN-β minimal promoter fused to five NF-κB and AP-1-binding sites. Briefly, cells are seeded into Greiner 384 well plates (15000 cells per well for TLR7, 20,000 for TLR8 and 25,000 for TLR9) and then treated with test compounds in DMSO to yield a final dose response concentration range of 0.05 nM-50 μM. […] After a 22 hour incubation at 37 C., 500 CO2, SEAP levels are determined with the addition of HEK-Blue Detection reagent (Invivogen), a cell culture medium that allows for detection of SEAP, according to manufacturer's specifications. The percent inhibition is determined as the 00 reduction in the HEK-Blue signal present in wells treated with agonist plus DMSO alone compared to wells treated with a known inhibitor.

Toll-like receptor 7 = target: T2, Toll-like receptor 7 (Homo sapiens, UniProt Q9NYK1)
T2 sequence (Q9NYK1 whole entry): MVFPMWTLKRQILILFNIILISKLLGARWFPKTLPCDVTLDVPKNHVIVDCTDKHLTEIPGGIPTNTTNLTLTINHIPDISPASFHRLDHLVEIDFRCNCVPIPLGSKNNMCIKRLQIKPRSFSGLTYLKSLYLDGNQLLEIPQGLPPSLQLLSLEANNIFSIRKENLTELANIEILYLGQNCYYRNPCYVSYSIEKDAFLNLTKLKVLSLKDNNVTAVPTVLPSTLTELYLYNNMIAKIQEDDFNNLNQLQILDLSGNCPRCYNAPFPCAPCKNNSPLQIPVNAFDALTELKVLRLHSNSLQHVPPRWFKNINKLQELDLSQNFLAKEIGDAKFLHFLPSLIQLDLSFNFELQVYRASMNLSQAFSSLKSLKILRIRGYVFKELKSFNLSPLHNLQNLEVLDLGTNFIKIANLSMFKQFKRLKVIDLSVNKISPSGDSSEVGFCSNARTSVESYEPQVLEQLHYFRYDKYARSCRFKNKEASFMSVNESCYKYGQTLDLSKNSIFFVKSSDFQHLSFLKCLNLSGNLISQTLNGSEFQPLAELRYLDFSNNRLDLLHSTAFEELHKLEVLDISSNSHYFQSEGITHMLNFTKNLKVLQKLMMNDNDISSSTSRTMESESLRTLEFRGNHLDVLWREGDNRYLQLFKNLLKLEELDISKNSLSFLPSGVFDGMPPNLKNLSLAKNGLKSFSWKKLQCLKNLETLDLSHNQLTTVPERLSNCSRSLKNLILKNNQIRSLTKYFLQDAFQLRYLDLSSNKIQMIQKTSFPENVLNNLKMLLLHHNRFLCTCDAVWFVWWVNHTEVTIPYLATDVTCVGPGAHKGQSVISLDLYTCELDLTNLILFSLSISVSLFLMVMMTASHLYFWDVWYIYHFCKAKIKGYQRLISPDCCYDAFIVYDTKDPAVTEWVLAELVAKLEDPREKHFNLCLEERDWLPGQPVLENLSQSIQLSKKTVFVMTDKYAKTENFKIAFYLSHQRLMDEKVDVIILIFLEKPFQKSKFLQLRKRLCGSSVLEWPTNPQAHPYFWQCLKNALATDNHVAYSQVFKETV
Protocol: as §1

Toll-like receptor 8 = target: T3, Toll-like receptor 8 (Homo sapiens, UniProt Q9NR97)
T3 sequence (Q9NR97 whole entry): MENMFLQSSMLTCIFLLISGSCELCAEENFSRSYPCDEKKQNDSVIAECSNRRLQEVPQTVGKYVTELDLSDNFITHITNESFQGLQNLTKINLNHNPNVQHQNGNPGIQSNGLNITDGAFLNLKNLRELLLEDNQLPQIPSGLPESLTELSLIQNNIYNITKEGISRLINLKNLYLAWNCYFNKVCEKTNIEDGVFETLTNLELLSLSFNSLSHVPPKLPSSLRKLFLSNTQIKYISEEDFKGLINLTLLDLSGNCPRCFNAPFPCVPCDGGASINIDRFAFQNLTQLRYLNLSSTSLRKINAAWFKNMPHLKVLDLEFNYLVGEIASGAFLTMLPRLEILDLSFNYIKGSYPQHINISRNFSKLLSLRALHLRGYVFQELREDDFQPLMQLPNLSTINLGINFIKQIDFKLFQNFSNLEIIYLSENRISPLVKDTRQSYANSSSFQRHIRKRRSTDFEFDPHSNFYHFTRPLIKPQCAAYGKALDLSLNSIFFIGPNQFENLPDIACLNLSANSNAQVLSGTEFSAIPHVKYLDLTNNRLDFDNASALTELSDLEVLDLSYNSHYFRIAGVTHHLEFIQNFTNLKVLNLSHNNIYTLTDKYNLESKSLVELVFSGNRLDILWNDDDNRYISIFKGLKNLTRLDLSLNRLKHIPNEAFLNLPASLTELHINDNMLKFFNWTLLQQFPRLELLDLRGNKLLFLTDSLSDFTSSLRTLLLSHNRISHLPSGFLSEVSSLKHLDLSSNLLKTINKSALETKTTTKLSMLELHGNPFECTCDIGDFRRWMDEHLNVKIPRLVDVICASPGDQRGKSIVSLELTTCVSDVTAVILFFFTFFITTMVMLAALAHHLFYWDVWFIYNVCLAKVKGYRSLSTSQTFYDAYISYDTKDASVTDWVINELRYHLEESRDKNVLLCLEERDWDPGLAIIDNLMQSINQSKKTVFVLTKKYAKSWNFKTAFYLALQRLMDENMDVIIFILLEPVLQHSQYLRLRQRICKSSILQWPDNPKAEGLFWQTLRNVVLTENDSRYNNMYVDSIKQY
Protocol: as §1

Row | SMILES | IC50 (Toll-like receptor 9) [nM] | IC50 (Toll-like receptor 7) [nM] | IC50 (Toll-like receptor 8) [nM]
1 | COc1cc(-c2[nH]c3cnc(N4CCN(C5COC5)CC4)cc3c2C(C)C)cn2ncnc12 [US11912703, Example 303] | > 50000 | 19 | 12
2 | Cc1c(-c2[nH]c3cnc(C4CCC(N5CC(CO)(CO)C5)CC4)c(F)c3c2C(C)C)cn2ncnc2c1C (configuration not stated) [US11912703, Example 266] | 2030 | 26 | 23
3 | CNCC(=O)N1CCN(c2cc3c(C(C)C)c(-c4cc(OC)c5ncnn5c4)[nH]c3cn2)CC1 [US11912703, Example 289] | 14000 | 3.7 | 58
4 | CNC(=O)CN1CCN(c2cc3c(C(C)C)c(-c4cc(OC)c5ncnn5c4)[nH]c3cn2)CC1 [US11912703, Example 288] | 2870 | 27 | 8.5

Reference: BindingDB's records for patent US11912703 (Bristol Myers Squibb, 2024)
